Measured values as given in patent US6869958B2, “Fused tetrahydropyridine derivatives as matrix metalloproteinase inhibitors” (Warner-Lambert Company, priority 2002, dated 2005).

Biological target: T1, hMMP-13CD (Homo sapiens, UniProt P45452)
T1 construct: a human MMP-13 catalytic domain (“hMMP-13CD”)
Assay: Inhibition of MMP-13 catalytic domain (IC50)
Assay type: biochemical
Conditions: human MMP-13 catalytic domain
Experimental: Thiopeptolide substrates show virtually no decomposition or hydrolysis at or below neutral pH in the absence of a matrix metalloproteinase enzyme. A typical thiopeptolide substrate commonly utilized for assays is Ac-Pro-Leu-Gly-thioester-Leu-Leu-Gly-OEt. A 100 μL assay mixture will contain 50 mM of N-2-hydroxyethylpiperazine-N′-2-ethanesulfonic acid buffer (“HEPES,” pH 7.0), 10 mM CaCl2, 100 μM thiopeptolide substrate, and 1 mM 5,5′-dithio-bis-(2-nitro-benzoic acid) (DTNB). The thiopeptolide substrate concentration may be varied, for example from 10 to 800 μM to obtain Km and Kcat values. The change in absorbance at 405 nm is monitored on a Thermo Max microplate reader (molecular Devices, Menlo Park, Calif.) at room temperature (22° C.). […]
Some representative compounds of Formula I have been evaluated for their ability to inhibit MMP-13. Inhibitor activity versus other MMPs with the compounds may be determined using, for example, MMP-1FL, which refers to full length interstitial collagenase; MMP-2FL, which refers to full length Gelatinase A; MMP-3CD, which refers to the catalytic domain of stromelysin; MMP-7FL, which refers to full length matrilysin; MMP-9FL, which refers to full length Gelatinase B; MMP-13CD, which refers to the catalytic domain of collagenase 3; and MMP-14CD, which refers to the catalytic domain of MMP-14. […]

Compound O=C(O)c1ccc(Cn2ccc3ccc(C#CCn4ccnn4)cc3c2=O)cc1 [4-[1-oxo-7-(3-[1,2,3]triazol-1-ylprop-1-ynyl)-1H-isoquinolin-2-ylmethyl]benzoic acid] has an IC50 of over 50 µM.
